Data taken from US4681879A, “11-substituted 5H,11H-pyrrolo[2,1-c][1,4]benzoxazepines as antipsychotic and analgesic agents” (Hoechst-Roussel Pharmaceuticals Inc., priority 1985, dated 1987).
Where a name gives a salt, the structure may show the parent alone.

Columns and labels:
apomorphine climbing = assay: Antipsychotic activity, climbing mice assay (apomorphine); format: in vivo, mice (CK-1 male); settings: Mus musculus; ip, 30 minutes prior to apomorphine 1.5 mg/kg sc
Experimental: Antipsychotic activity is determined in the climbing mice assay by methods similar to those described by P. Protais, et al., Psychopharmacol., 50, 1 (1976) and B. Costall, Eur. J. Pharmacol., 50, 39 (1978).
The subject CK-1 male mice (23-27 grams) are group-housed under standard laboratory conditions. The mice are individually placed in wire mesh stick cages (4"×4" by 10") and are allowed one hour for adaptation and exploration of the new environment. Then apomorphine is injected subcutaneously at 1.5 mg/kg, a dose causing climbing in all subjects for 30 minutes. Compounds to be tested for antipsychotic activity are injected intraperitoneally 30 minutes prior to the apomorphine challenge at a screening dose of 10 mg/kg.
For evaluation of climbing, 3 readings are taken at 10, 20 and 30 minutes after apomorphine administration according to the following scale: […]
______________________________________
4 paws on bottom (no climbing)
2 paws on the wall (rearing)
4 paws on the wall (full climb)
Mice consistently climbing before the injection of apomorphine are discarded.
With full-developed apomorphine climbing, the animals are hanging onto the cage walls, rather motionless, over longer periods of time. By contrast, climbs due to mere motor stimulation usually last only a few seconds.
The climbing scores are individually totaled (maximum score: 6 per mouse over 3 readings) and the total score of the control group (vehicle intraperitoneally-apomorphine subcutaneously) is seet to 100%. ED50 values with 95% confidence limits, calculated by a linear regression analysis of some of the compounds of this invention are presented in Table 1.

[1] = test system: 2-phenyl-1,4-benzoquinone-induced writhing; assay: Analgesic activity, 2-phenyl-1,4-benzoquinone-induced writhing test in mice; format: in vivo; settings: Mus musculus, sc; read-out: ANALGESIC ACTIVITY (Phenylquinone Writhing) ED50
Text: Compounds of the present invention are useful as analgesic agents due to their ability to alleviate pain in mammals. […] Exptl. Biol. Med., 95, 729 (1957)].

Structure (SMILES)	ED50 (apomorphine climbing)	ED50 [1]
O=C(CCN1CCC(C2Oc3ccccc3Cn3cccc32)CC1)c1ccc(Cl)cc1 (stereo not drawn) [1-(4-Chlorophenyl)-3-[4-]5H,11H-pyrrolo[2,1-c][1,4]benzoxazepin-11-yl]-1-piperidinyl]-1-propanone]	5.5 mg/kg	–
O=C(CCN1CCC(C2Oc3ccccc3Cn3cccc32)CC1)c1ccccc1.O=C(O)C(=O)O (stereo not drawn) [1-Phenyl-3-[4-[5H,11H-pyrrolo[2,1-c][1,4]benzoxazepin-11-yl]-1-piperidinyl]-1-propanone oxalate]	1.6 mg/kg	1.6 mg/kg
CCCCN1CCC(C2Oc3ccccc3Cn3cccc32)CC1 (stereo not drawn) [11-[(1-Butyl)piperidin-4-yl]-5H,11H-pyrrolo[2,1-c][1,4]benzoxazepine]	3.8 mg/kg	0.4 mg/kg
O=C(O)C(=O)O.O=c1[nH]c2ccccc2n1CCN1CCC(C2Oc3ccccc3Cn3cccc32)CC1 (stereo not drawn) [11-{1-[2-(1,3-Dihydro-2-oxo-2H-benzimidazol-1-yl)ethyl]piperidin-4-yl}-5H,11H-pyrrolo[2,1-c][1,4]benzoxazepine oxalate]	3.2 mg/kg	0.9 mg/kg
COc1cccc(CCN2CCC(C3Oc4ccccc4Cn4cccc43)CC2)c1OC.O=C(O)/C=C/C(=O)O (stereo not drawn) [11-{1-[2-(2,3-Dimethoxyphenyl)ethyl]piperidin-4-yl}-5H,11H-pyrrolo[2,1-c][1,4]benzoxazepine fumarate]	3 mg/kg	–
c1csc(CCN2CCC(C3Oc4ccccc4Cn4cccc43)CC2)c1 (stereo not drawn) [11-{1-[2-(2-Thienyl)ethyl]piperidin-4-yl}-5H,11H-pyrrolo[2,1-c][1,4benzoxazepine]	1.8 mg/kg	–
COc1ccc(CCN2CCC(C3Oc4ccccc4Cn4cccc43)CC2)cc1OC (stereo not drawn) [11-{1-[2-(3,4-Dimethoxyphenyl)ethyl]piperidin-4-yl}-5H,11H-pyrrolo[2,1-c][1,4]benzoxazepine]	0.3 mg/kg	0.1 mg/kg
COc1cccc(CCN2CCC(C3Oc4ccccc4Cn4cccc43)CC2)c1 (stereo not drawn) [11-{1-[2-(3-Methoxyphenyl)ethyl]piperidin-4-yl}-5H,11H-pyrrolo[2,1-c][1,4]benzoxazepine]	0.9 mg/kg	–
Clc1ccc(CCN2CCC(C3Oc4ccccc4Cn4cccc43)CC2)cc1 (stereo not drawn) [11-{1-[2-(4-Chlorophenylethyl)]piperidin-4-yl}-5H,11H-pyrrolo[2,1-c][1,4]benzoxazepine]	2.1 mg/kg	–
CN(C)c1ccc(CCN2CCC(C3Oc4ccccc4Cn4cccc43)CC2)cc1 (stereo not drawn) [11-{1-[2-(4-Dimethylaminophenylethyl)]piperidin-4-yl}-5H,11H-pyrrolo[2,1-c][1,4]benzoxazepine]	1.2 mg/kg	0.4 mg/kg
CCOc1ccc(CCN2CCC(C3Oc4ccccc4Cn4cccc43)CC2)cc1 (stereo not drawn) [11-{1-[2-(4-Ethoxyphenylethyl)]piperidin-4-yl}-5H,11H-pyrrolo[2,1-c][1,4]benzoxaxepine]	1.3 mg/kg	1.9 mg/kg
Fc1ccc(CCN2CCC(C3Oc4ccccc4Cn4cccc43)CC2)cc1.O=C(O)C(=O)O (stereo not drawn) [11-{1-[2-(4-Fluorophenyl)ethyl]piperidin-4-yl}-5H,11H-pyrrolo[2,1-c][1,4]benzoxazepine oxalate]	3.1 mg/kg	–
Oc1ccc(CCN2CCC(C3Oc4ccccc4Cn4cccc43)CC2)cc1 (stereo not drawn) [11-{1-[2-(4-Hydroxyphenyl)ethyl]piperidin-4-yl}-5H,11H-pyrrolo[2,1-c][1,4]benzoxazepine]	0.3 mg/kg	–
COc1ccc(CCN2CCC(C3Oc4ccccc4Cn4cccc43)CC2)cc1.O=C(O)C(=O)O (stereo not drawn) [11-{1-[2-(4-Methoxyphenyl)ethyl]piperidin-4-yl}-5H,11H-pyrrolo[2,1-c][1,4]benzoxazepine oxalate]	0.3 mg/kg	0.3 mg/kg
Cc1ccc(CCN2CCC(C3Oc4ccccc4Cn4cccc43)CC2)cc1 (stereo not drawn) [11-{1-[2-(4-Methylphenyl)ethyl]piperidin-4-yl}-5H,11H-pyrrolo[2,1-c][1,4]benzoxazepine]	1.2 mg/kg	–
O=[N+]([O-])c1ccc(CCN2CCC(C3Oc4ccccc4Cn4cccc43)CC2)cc1 (stereo not drawn) [11-{1-[2-(4-Nitrophenylethyl)]piperidin-4-yl}-5H,11H-pyrrolo[2,1-c][1,4]benzoxazepine]	3.5 mg/kg	4.1 mg/kg
O=C(O)C(=O)O.c1ccc(CCN2CCC(C3Oc4ccccc4Cn4cccc43)CC2)cc1 (stereo not drawn) [11-{1-[2-(Phenyl)ethyl]piperidin-4-yl}-5H,11H-pyrrolo[2,1-c][1,4]benzoxazepine oxalate]	3.1 mg/kg	–
O=C(O)C(=O)O.O=c1[nH]c2ccccc2n1CCCN1CCC(C2Oc3ccccc3Cn3cccc32)CC1 (stereo not drawn) [11-{1-[3-(1,3-Dihydro-2-oxo-2H-benzimidazol-1-yl)propyl]piperidin-4-yl}-5H,11H-pyrrolo[2,1-c][1,4]benzoxazepine oxalate]	0.7 mg/kg	0.3 mg/kg
Cc1[nH]c2ccccc2c1CCCN1CCC(C2Oc3ccccc3Cn3cccc32)CC1.O=C(O)C(=O)O (stereo not drawn) [11-{1-[3-(2-Methylindol-3-yl)propyl]piperidin-4-yl}-5H,11H-pyrrolo[2,1-c][1,4]benzoxazepine oxalate]	2.3 mg/kg	–
Fc1ccc2c(CCCN3CCC(C4Oc5ccccc5Cn5cccc54)CC3)noc2c1.O=C(O)C(=O)O (stereo not drawn) [11-{1-[3-(6-Fluoro-1,2-benzisoxazol-3-yl)propyl]piperidin-4-yl}-5H,11H-pyrrolo[2,1-c][1,4]benzoxazepine oxalate]	2.1 mg/kg	5.1 mg/kg
c1ccc(OCCCN2CCC(C3Oc4ccccc4Cn4cccc43)CC2)cc1 (stereo not drawn) [11-{1-[3-(Phenoxy)propyl]piperidin-4-yl}-5H,11H-pyrrolo[2,1-c][1,4]benzoxazepine]	1.2 mg/kg	4.2 mg/kg
c1ccc(CCCN2CCC(C3Oc4ccccc4Cn4cccc43)CC2)cc1 (stereo not drawn) [11-{1-[3-(Phenyl)propyl]piperidin-4-yl}-5H,11H-pyrrolo[2,1-c][1,4[benzoxazepine oxalate]	2 mg/kg	–
